The source of these data is patent US11198692B2, “Dihydro-pyrrolo-pyridine derivatives” (Pfizer Inc., priority 2017, dated 2021).

For the assay, the target named is T1, Human M4 receptors (Homo sapiens, UniProt P08173).
T1 construct: expressed in transfected cells
T1 sequence (P08173 1-479): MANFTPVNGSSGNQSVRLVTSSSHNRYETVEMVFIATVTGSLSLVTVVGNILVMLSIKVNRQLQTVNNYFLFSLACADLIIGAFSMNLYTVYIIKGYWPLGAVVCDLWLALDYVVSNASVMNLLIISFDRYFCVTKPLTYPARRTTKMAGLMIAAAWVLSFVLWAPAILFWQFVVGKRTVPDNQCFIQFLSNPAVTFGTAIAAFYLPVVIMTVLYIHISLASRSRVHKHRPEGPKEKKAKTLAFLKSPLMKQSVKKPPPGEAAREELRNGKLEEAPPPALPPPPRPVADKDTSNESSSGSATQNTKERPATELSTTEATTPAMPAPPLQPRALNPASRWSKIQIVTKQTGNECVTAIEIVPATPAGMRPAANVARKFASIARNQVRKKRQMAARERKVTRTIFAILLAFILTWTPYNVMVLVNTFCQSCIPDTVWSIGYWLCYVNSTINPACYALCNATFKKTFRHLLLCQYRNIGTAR
As to the kind of experiment: M4 PAM cAMP assay (GloSensor). Format: cell-based. As to conditions: HEK293 GloSensor cells expressing hM4, with EC20 acetylcholine and isoproterenol, geometric mean of 2-4 determinations unless footnoted (b: >=5, c: single); for Emax / EC50 Mean Asymptote Maximum (%): Emax = maximum asymptote of fitted dose response curve; for Emax: read-out: EC50 Mean Asymptote Maximum (%). The method, then: The M4 cAMP assay was designed to determine the potency and efficacy of muscarinic positive allosteric modulators (PAMs). Human M4 receptors were stably expressed in Human embryonic kidney (HEK293) cells expressed with the Promega GloSensor™ cAMP technology.
HEK293 GloSensor cells expressing hM4 cells were cultured in growth media containing DMEM with 10% FBS, 1% Penicillin/Streptomycin, 500 μg/mL G418, 200 μg/mL Hygomycin B, and 1% Glutamax. When cells had grown to 80%-90% confluency, cells were harvested and seeded at a density of 25,000 cells/40 μL well, in a 384 white walled plates (Becton Dickinson 356661). Plates were incubated at 37 degrees C. and 5% CO2 for use after 24 hours.
Compound Preparation for Activator Screen:
Test compounds were initially prepared as 100% DMSO stock solutions, then transferred and serially diluted in 384-well compound plates (Matrix #4325). Each compound was tested at 10 concentrations in duplicate per experiment. Compound plates are spotted with 0.2 μL/well activator at 400 times the final assay concentration. Positive and negative controls for the compound alone activator response was 10 μM acetylcholine (Sigma # A2661) and DMSO, respectively. EC20 of acetylcholine was also used to define PAM activities.
Promega GloSensor™reagent (Promega # E1291) had previously been aliquotted. For each experiment, a stock solution of GloSensor™ was thawed out and equilibration medium was prepared with 88% CO2-independent media (Invitrogen #18045088), 10% fetal bovine serum and 2% GloSensor™ cAMP Reagent stock solution. Stock solution was mixed. Culture media in cell plates was discarded, then replaced with 40 μL/well pre-warmed equilibration media, then incubated in the dark at room temperature for 2 hours. During the incubation, stimulation media containing agonist and EC20 acetylcholine was prepared. CO2-independent media containing 50 […] Isoproterenol representing an EC80 of b-adrenergic receptor activity (Sigma #16504, 400 times final concentration) and EC20 acetylcholine in 1.25% DMSO was added to all columns of the compound plate, with the exception of column 12 to allow for EC0 control. […] Compounds are now 5 times the final assay concentration. The plate was mixed using a plate agitator. At the end of the 2 hour GloSensor™ incubation, add 10 μL of the CO2-independent media containing agonist, EC20 acetylcholine and isoproterenol to the cell plate. Cell plate was then incubated for 10 minutes at room temperature, and then read using an EnVision plate reader (Perkin Elmer).
Data was exported from the EnVision plate reader. The percent effect for each well was determined using the mean values for the positive and negative controls on each plate for each read, specifically 100*(compound−negative control)/(positive control−negative control). Dose response curves were fitted to the compound percent effect data using a 4-parameter logistic fit model. Data was reported as EC50 and Emax, with the Emax as the maximum asymptote of the fitted dose response curve.
A general note: Changes in cAMP serve as a functional read-out for many G protein-coupled receptors.

On to `CNc1nc(C)c(C)c2c1CN(C(=O)C[C@@H]1C[C@H]1c1cccnc1)C2` (single isomer, unassigned) [Example 10, 1-[6,7-Dimethyl-4-(methylamino)-1,3-dihydro-2H-pyrrolo[3,4-c]pyridin-2-yl]-2-[trans-2-(pyridin-3-yl)cyclopropyl]ethanone], for which the Emax stood at 114% and the EC50 is 197 nM.

For the compound `CNc1nc(C)c(C)c2c1CN(C(=O)C[C@@H]1C[C@H]1c1ccc(F)nc1)C2` (single isomer, unassigned) [Example 15, 1-[6,7-dimethyl-4-(methylamino)-1,3-dihydro-2H-pyrrolo[3,4-c]pyridin-2-yl]-2-[trans-2-(6-fluoropyridin-3-yl)cyclopropyl]ethanone], the “EC50 Mean Asymptote Maximum (%)” value is reported as 148% and the EC50 was 795 nM.

On to `CNc1nc(C)c(C)c2c1CN(C(=O)C[C@@H]1C[C@H]1c1ccc(C)nc1)C2` (racemic) [Example 45, 1-[6,7-dimethyl-4-(methylamino)-1,3-dihydro-2H-pyrrolo[3,4-c]pyridin-2-yl]-2-[trans-2-(6-methylpyridin-3-yl)cyclopropyl]ethanone], for which the Emax came out at 105% and the EC50 was determined as 3.56 nM.

`CNc1nc(C)c(C)c2c1CN(C(=O)CC1CN(c3ccnc(C)c3)C1)C2` [Example 35, 1-[6,7-dimethyl-4-(methylamino)-1,3-dihydro-2H-pyrrolo[3,4-c]pyridin-2-yl]-2-[1-(2-methylpyridin-4-yl)azetidin-3-yl]ethanone]: the Emax was determined as 97.7% and the response was half-maximal at 13.6 nM (EC50).

Take `Cc1nc(C(F)F)c2c(c1C)CN(C(=O)CC1CN(c3cccnc3)C1)C2` [Example 18, 1-[4-(difluoromethyl)-6,7-dimethyl-1,3-dihydro-2H-pyrrolo[3,4-c]pyridin-2-yl]-2-[1-(pyridin-3-yl)azetidin-3-yl]ethanone]: the Emax was 91.7% and the EC50 is 23.6 nM.

For `CNc1nc(C)c(C)c2c1CN(C(=O)c1cnn(C)c1)C2` [Example 48, [6,7-dimethyl-4-(methylamino)-1,3-dihydro-2H-pyrrolo[3,4-c]pyridin-2-yl](1-methyl-1H-pyrazol-4-yl)methanone], the Emax turned out to be 96.8% and the EC50 was 8.46 nM.

As for `Cc1[nH]c(=O)c2c(c1C)CN(C(=O)CC1CN(c3cccnc3)C1)C2` [Example 21, 6,7-dimethyl-2-{[1-(pyridin-3-yl)azetidin-3-yl]acetyl}-1,2,3,5-tetrahydro-4H-pyrrolo[3,4-c]pyridin-4-one], the Emax was 99.7% and a half-maximal response (EC50) required 8.72 nM.

In the case of `Cc1c2c(c(=O)n(C)c1C)CN(C(=O)CC1CN(c3cccnc3)C1)C2` [Example 1, 5,6,7-Trimethyl-2-{[1-(pyridin-3-yl)azetidin-3-yl]acetyl}-1,2,3,5-tetrahydro-4H-pyrrolo[3,4-c]pyridin-4-one], the Emax stood at 90.9% and it took 8.62 nM to reach a half-maximal effect (EC50).

`CNc1nc(C)c(C)c2c1CN(C(=O)OC1CN(c3cccnc3)C1)C2` [Example 5, 1-(Pyridin-3-yl)azetidin-3-yl 6,7-dimethyl-4-(methylamino)-1,3-dihydro-2H-pyrrolo[3,4-c]pyridine-2-carboxylate]: the Emax is 96.8% and the EC50 worked out at 1.22 nM.

Regarding `Cc1nc(N)c2c(c1C)CN(C(=O)C[C@@H]1C[C@H]1c1ccc(F)nc1)C2` (single isomer, unassigned) [Example 8, 1-(4-Amino-6,7-dimethyl-1,3-dihydro-2H-pyrrolo[3,4-c]pyridin-2-yl)-2-[trans-2-(6-fluoropyridin-3-yl)cyclopropyl]ethanone], the Emax amounted to 99% and the EC50 is 1.24 nM.

With `CNc1nc(C)c(C)c2c1CN(C(=O)CCc1cn[nH]c1)C2` [Example 38, 1-[6,7-dimethyl-4-(methylamino)-1,3-dihydro-2H-pyrrolo[3,4-c]pyridin-2-yl]-3-(1H-pyrazol-4-yl)propan-1-one], the Emax amounted to 102% and the EC50 stood at 13.8 nM.

For `CNc1nc(C)c(C)c2c1CN(C(=O)CC1CN(c3cccnc3)C1)C2` [Example 4, 1-[6,7-Dimethyl-4-(methylamino)-1,3-dihydro-2H-pyrrolo[3,4-c]pyridin-2-yl]-2-[1-(pyridin-3-yl)azetidin-3-yl]ethanone], the Emax turned out to be 95.8% and the EC50 is 1.76 nM.

`Cc1c2c(c(=O)n(C)c1C)CN(C(=O)C[C@@H]1C[C@H]1c1cccnc1)C2` (single isomer, unassigned) [Example 27, 5,6,7-trimethyl-2-{[trans-2-(pyridin-3-yl)cyclopropyl]acetyl}-1,2,3,5-tetrahydro-4H-pyrrolo[3,4-c]pyridin-4-one]: the “EC50 Mean Asymptote Maximum (%)” value turned out to be 95.3% and the EC50 stood at 9.99 nM.

Consider `CNc1nc(C)c(C)c2c1CN(C(=O)CC1CN(c3ccnc(OC(F)F)c3)C1)C2` [Example 3, 2-{1-[2-(Difluoromethoxy)pyridin-4-yl]azetidin-3-yl}-1-[6,7-dimethyl-4-(methylamino)-1,3-dihydro-2H-pyrrolo[3,4-c]pyridin-2-yl]ethanone], for which the Emax stood at 106% and the EC50 is 2.91 nM.

Take `CNc1nc(C)c(C)c2c1CN(C(=O)CC1CN(c3cncnc3)C1)C2` [Example 19, 1-[6,7-dimethyl-4-(methylamino)-1,3-dihydro-2H-pyrrolo[3,4-c]pyridin-2-yl]-2-[1-(pyrimidin-5-yl)azetidin-3-yl]ethanone]: the Emax was 92.3% and the EC50 was 1.23 nM.

Turning to `Cc1nc(OC(F)F)c2c(c1C)CN(C(=O)CC1CN(c3cncnc3)C1)C2` [Example 56, 1-[4-(difluoromethoxy)-6,7-dimethyl-1,3-dihydro-2H-pyrrolo[3,4-c]pyridin-2-yl]-2-[1-(pyrimidin-5-yl)azetidin-3-yl]ethanone], the Emax was determined as 109% and the midpoint of the response, the EC50, lay at 150 nM.

With `COc1nc(C)c(C)c2c1CN(C(=O)CC1CN(c3cccnc3)C1)C2` [Example 53, 1-(4-methoxy-6,7-dimethyl-1,3-dihydro-2H-pyrrolo[3,4-c]pyridin-2-yl)-2-[1-(pyridin-3-yl)azetidin-3-yl]ethanone], the Emax came to 92.1% and a half-maximal response (EC50) required 43.8 nM.

As to `CNc1nc(C)c(C)c2c1CN(C(=O)CC1CN(c3ncns3)C1)C2` [Example 2, 1-[6,7-Dimethyl-4-(methylamino)-1,3-dihydro-2H-pyrrolo[3,4-c]pyridin-2-yl]-2-[1-(1,2,4-thiadiazol-5-yl)azetidin-3-yl]ethanone], the Emax was 96.1% and the EC50 amounted to 4.33 nM.

Regarding `COCc1nc(C)c(C)c2c1CN(C(=O)CC1CN(c3cccnc3)C1)C2` [Example 54, 1-[4-(methoxymethyl)-6,7-dimethyl-1,3-dihydro-2H-pyrrolo[3,4-c]pyridin-2-yl]-2-[1-(pyridin-3-yl)azetidin-3-yl]ethanone], the Emax turned out to be 95.8% and the EC50 worked out at 153 nM.

For the compound `CNc1nc(C)c(C)c2c1CN(C(=O)CC1CN(c3ccnc(C#N)c3)C1)C2` [Example 36, 4-(3-{2-[6,7-dimethyl-4-(methylamino)-1,3-dihydro-2H-pyrrolo[3,4-c]pyridin-2-yl]-2-oxoethyl}azetidin-1-yl)pyridine-2-carbonitrile], the Emax amounted to 95.6% and a half-maximal effect (EC50) was put at 5.46 nM.

By EC50 is commonly meant the midpoint of the concentration-response curve.
